Activity calls are given as the source filed them.

Broadly, the IC50 is the concentration needed to halve the response being measured. Usually half-life stands for the time needed for the level to fall by half in the phase considered. As usually defined, the AUC is concentration integrated over time. Read a low AUC as less exposure. One may read the bioavailability as dose-corrected exposure relative to a reference, in per cent. Read a high bioavailability as much systemic uptake. As usually defined, the EC50 is the concentration that produces a half-maximal response.

For series [1], the target named is Mitogen-activated protein kinase 9 (Homo sapiens, UniProt P45984). Kind of series: Inhibition of JNK2 (unknown origin) using biotinylated ATF2 by HTRF method. Background: Time-resolved FRET reads energy transfer from a long-lived donor to a nearby acceptor.
Series [2] concerns the target Mitogen-activated protein kinase 10 (Homo sapiens, UniProt P53779). Kind of series: Inhibition of JNK3 (unknown origin) using biotinylated ATF2 by HTRF method.
Series [3] is described as follows: Clearance in Sprague-Dawley rat at 1 mg/kg, iv and 2 mg/kg, po by LC-MS/MS analysis. In kind it is ADME, organism-based. Particulars: in vivo.
Series [4] can be described thus: Half life in Sprague-Dawley rat at 1 mg/kg, iv and 2 mg/kg, po by LC-MS/MS analysis. The format is ADME, organism-based. Particulars: in vivo.
Series [5] can be described thus: (§1) AUC in Sprague-Dawley rat at 2 mg/kg, po by LC-MS/MS analysis. In kind it is ADME, organism-based, Plasma. Also noted: dose 2 mg/kg, route oral. As to conditions: Sprague-Dawley, plasma.
Series [6] can be described thus: (§2) Oral bioavailability in Sprague-Dawley rat at 2 mg/kg by LC-MS/MS analysis. In kind it is ADME, organism-based. As to conditions: Sprague-Dawley, in vivo.
The nature of series [7]: Plasma concentration in C57Bl6 mouse at 10 mg/kg after 2 hrs by LC-MS/MS analysis. In kind it is ADME, organism-based. Further details: dose 10 mg/kg.
Series [8] relates to Brain. Kind of series: Drug penetration in C57Bl6 mouse brain at 10 mg/kg by LC-MS/MS analysis relative to control. The format is ADME, organism-based. Further details: dose 10 mg/kg. As to conditions: in vivo.
A short description of series [9]: Drug uptake in C57Bl6 mouse brain at 10 mg/kg after 2 hrs by LC-MS/MS analysis. In kind it is ADME, organism-based. Particulars: read-out: Drug uptake. Further details: dose 10 mg/kg.
Series [10] has as its target T1, c-Jun N-terminal kinase, JNK (Homo sapiens, UniProt P45983+P53779+P45984). As to conditions: U-87MG ATCC.
Description: Inhibition of JNK in human U87MG cells overexpressing EGFR V3 mutant assessed as inhibition of c-jun phosphorylation at 0.1 to 3 uM after 6 hrs by Western blotting analysis
The nature of series [11]: Inhibition of JNK in rat INS cells assessed as inhibition of c-jun phosphorylation. In kind it is cell-based.
The test system of series [12] is Rattus norvegicus. The description is as §1. The format is ADME, organism-based, Plasma. Also noted: dose 2 mg/kg, route oral. As to conditions: in vivo.
Series [13] relates to Rattus norvegicus. The description is as §2. The format is ADME, organism-based. As to conditions: in vivo.
In series [14] the target is T1, c-Jun N-terminal kinase, JNK. Kind of series: Inhibition of JNK in human U87MG cells overexpressing EGFR V3 mutant assessed as inhibition of c-jun phosphorylation after 6 hrs by ELISA. As to conditions: u-87mg atcc. In kind it is cell-based.

Mitogen-activated protein kinase 10, sequence (P53779 whole entry): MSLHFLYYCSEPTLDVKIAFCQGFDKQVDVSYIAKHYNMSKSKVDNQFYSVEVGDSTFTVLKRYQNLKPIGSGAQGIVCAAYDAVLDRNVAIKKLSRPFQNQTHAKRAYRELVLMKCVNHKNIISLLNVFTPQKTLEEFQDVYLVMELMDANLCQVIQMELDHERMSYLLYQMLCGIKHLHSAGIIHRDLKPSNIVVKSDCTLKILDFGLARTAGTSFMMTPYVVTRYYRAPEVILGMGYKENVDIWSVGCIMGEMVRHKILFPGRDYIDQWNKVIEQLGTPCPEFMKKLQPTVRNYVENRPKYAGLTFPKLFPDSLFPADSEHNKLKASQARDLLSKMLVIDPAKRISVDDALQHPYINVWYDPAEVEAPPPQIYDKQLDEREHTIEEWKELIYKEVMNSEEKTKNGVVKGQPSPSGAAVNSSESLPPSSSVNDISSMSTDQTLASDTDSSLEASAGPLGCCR
Mitogen-activated protein kinase 9, sequence (P45984 whole entry): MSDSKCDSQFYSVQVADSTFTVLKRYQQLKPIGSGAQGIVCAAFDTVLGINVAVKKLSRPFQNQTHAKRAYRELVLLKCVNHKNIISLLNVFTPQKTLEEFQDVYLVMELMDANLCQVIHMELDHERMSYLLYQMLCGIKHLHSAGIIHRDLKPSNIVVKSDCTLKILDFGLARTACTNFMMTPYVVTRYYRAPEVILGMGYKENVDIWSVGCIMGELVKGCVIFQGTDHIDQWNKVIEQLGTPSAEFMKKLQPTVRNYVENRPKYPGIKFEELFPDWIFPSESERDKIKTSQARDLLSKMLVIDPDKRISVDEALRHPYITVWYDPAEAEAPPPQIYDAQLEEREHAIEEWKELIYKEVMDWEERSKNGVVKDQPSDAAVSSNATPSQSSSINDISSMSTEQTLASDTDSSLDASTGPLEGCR

Take `CNC(=O)c1ccccc1Nc1cc(Nc2ccc(N3CCOCC3)cc2OC)ncc1F`: the IC50 in series [1] was found to be 590 nM; in [2] it was 320 nM.

In series [2], `COc1cc(N2CCOCC2)ccc1Nc1cc(Nc2ccccc2C(=O)N(C)C)c(C(F)(F)F)cn1` showed an IC50 of 1000 nM.

Turning to `CNC(=O)c1ccccc1Nc1cc(Nc2ccc(N3CCOCC3)cc2OC)ncc1Cl`, the IC50 in series [1] was 50 nM; in series [2], 83 nM.

The compound `CN(C)CCNC(=O)c1ccccc1Nc1ccnc(Nc2ccc(N3CCOCC3)cc2)c1` returned an IC50 in series [2] greater than 20000 nM.

In [2], `COc1cc(Nc2cc(Nc3ccccc3C(N)=O)ccn2)ccc1N1CCOCC1` yielded an IC50 of 132 nM.

In series [3], `NC(=O)c1ccccc1Nc1nc(Nc2ccc(N3CCCC3=O)cc2)ncc1Cl` returned a clearance of 10 mL/min/kg. For the same compound, in series [4], the half-life is 0.6 h. Besides, the AUC in series [5] was 0.2 µM·h. The bioavailability in series [6] worked out at 3%. In addition, the concentration for half-maximal inhibition (IC50) in [1] came to 0.24 nM; in [2] it was 0.16 nM. In addition, the concentration at 2 h amounted to 680 nM in series [7] and 15 nM in series [9]. This compound also had a Drug uptake in [8] of 2%.

`NC(=O)c1ccccc1Nc1ccnc(Nc2ccc(N3CCOCC3)cc2)c1`: the IC50 in [1] was determined as 329 nM; in series [2] it was 160 nM.

Turning to `CNC(=O)c1ccccc1Nc1cc(Nc2ccc(N3CCOCC3)cc2)ncc1C(F)(F)F`, the results for the IC50 in series [1] and in series [2] were 90 nM and 61 nM, respectively.

`O=C1NCc2cccc(Nc3ccnc(Nc4ccc(N5CCOCC5)cc4)c3)c21` displayed an IC50 in [2] of 1800 nM.

In series [3], `NC(=O)c1ccccc1Nc1nc(Nc2ccc(N3CCOCC3)cc2)ncc1Cl` had a clearance of 59 mL/min/kg. The compound further showed a half-life in [4] of 1 h. In [5], this compound returned an AUC of 0.1 µM·h. Also, the bioavailability in [6] is 8%. Moreover, the IC50 was found to be 1 nM in series [1] and 0.28 nM in series [2]. Further, the figures for the concentration at 2 h in [7] and in [9] were 840 nM and 830 nM, respectively. In addition, the Drug uptake in series [8] was found to be 100%.

Regarding `N#Cc1ccc(Nc2ncc(Cl)c(Nc3ccccc3C(N)=O)n2)cc1`, the IC50 worked out at 0.71 nM in series [1] and 0.77 nM in series [2].

Turning to `CNC(=O)c1ccccc1Nc1cc(Nc2ccc(N3CCOCC3)cc2OC)ncc1C#N`, the IC50 was greater than 3000 nM in [1] and 510 nM in [2].

`COc1cc(N2CCOCC2)ccc1Nc1cc(Nc2ccccc2C(N)=O)ccn1`: in series [2], half-maximal inhibition (IC50) was put at 374 nM.

With `COc1ccc(Nc2ncc(Cl)c(Nc3ccccc3C(N)=O)n2)cc1`, the IC50 in series [1] worked out at 1 nM; in series [2] it was 0.42 nM.

As to `CNC(=O)c1ccccc1Nc1nc(Nc2ccc(N3CCOCC3)cc2OC)ncc1Cl`, the inhibition result in [10] is “Active”. For the same compound, the IC50 in series [11] was determined as 485 nM.

For `CNC(=O)c1ccccc1Nc1cc(Nc2ccc(N3CCOCC3)cc2OC)ncc1Br`, the IC50 in series [1] was found to be 82 nM; in series [2], 68 nM.

In the case of `COc1cc(N2CCOCC2)ccc1Nc1ncc(Cl)c(Nc2ccccc2C(N)=O)n1`, the half-life in series [4] is 1 h. This compound had an AUC in [12] of 0.4 µM·h. In series [13], this compound displayed an F of 30%. The IC50 in series [1] turned out to be 3 nM; in series [2], 0.78 nM; in series [11] it was 3 nM. For the same compound, the concentration at 2 h in [7] was 5500 nM; in series [9], 930 nM. Also, the Drug uptake in series [8] is given as 17%.

Regarding `O=C(Nc1ccccc1)c1ccccc1Nc1ccnc(Nc2ccc(N3CCOCC3)cc2)c1`, the IC50 in series [2] is 12000 nM.

Regarding `COc1cc(Nc2ncc(Cl)c(Nc3ccccc3C(N)=O)n2)ccc1N1CCOCC1`, the half-life in [4] was 1 h. Also, the inhibition result in series [10] is “Active”. For the same compound, in [12], the AUC was 1.3 µM·h. Also, in series [13], the F turned out to be 17%. Also, the IC50 was found to be 0.68 nM in [1] and 0.28 nM in series [2]. Besides, the concentration at 2 h in series [7] came out at 2600 nM; in series [9], 800 nM. The same compound showed a Drug uptake in [8] of 31%. Also, the EC50 in series [14] is 23 nM.

In the case of `CNC(=O)c1ccccc1Nc1cc(Nc2ccc(N3CCOCC3)cc2OC)ncc1C(F)(F)F` [VS-4718], the IC50 in series [1] was 120 nM; in [2], 160 nM; in series [11] it was greater than 3000 nM.

For `NC(=O)c1ccccc1Nc1nc(Nc2ccc(N3CCOCC3)cc2F)ncc1Cl`, the IC50 in [1] came to 0.6 nM; in series [2], 0.3 nM.

Consider `O=C(NCc1ccccc1)c1ccccc1Nc1ccnc(Nc2ccc(N3CCOCC3)cc2)c1`, for which the IC50 in series [2] is greater than 20000 nM.

Turning to `CNC(=O)c1ccccc1Nc1ccnc(Nc2ccc(N3CCOCC3)cc2)c1`, the IC50 in series [2] was found to be 3100 nM.

Consider `NC(=O)c1ccccc1Nc1nc(Nc2ccc(Cl)cc2)ncc1Cl`, for which the IC50 worked out at 34 nM in series [1] and 2.5 nM in series [2].

Turning to `NC(=O)c1ccccc1Nc1nc(Nc2ccc(N3CCOCC3)c(F)c2)ncc1Cl`, the IC50 in series [1] turned out to be 0.51 nM; in series [2] it was 0.25 nM.

Turning to `NC(=O)c1ccccc1Nc1nc(Nc2ccc(F)cc2)ncc1Cl`, the IC50 in series [1] came out at 2.5 nM; in series [2], 1.2 nM.

Take `Cc1cc(Nc2ncc(Cl)c(Nc3ccccc3C(N)=O)n2)ccc1N1CCOCC1`: the half-maximal inhibitory concentration (IC50) worked out at 0.69 nM in [1] and 0.31 nM in [2].
